Counter-ions that a name gives are not always drawn. Where a SMILES comes first, the peptide text is derived from it. The star is where a group is joined. pNA = O=[N+]([O-])c1ccc(N*)cc1; Tos = Cc1ccc(S(=O)(=O)*)cc1; Cbz = O=C(OCc1ccccc1)*; Bz = O=C(c1ccccc1)*
B1: human plasmin (Homo sapiens) (protein)
chain 1: VVGGCVAHPHSWPWQVSLRTRFGMHFCGGTLISPEWVLTAAHCLEKSPRPSSYKVILGAHQEVNLEPHVQEIEVSRLFLEPTRKDIALLKLSSPAVITDKVIPACLPSPNYVVADRTECFITGWGETQGTFGAGLLKEAQLPVIENKVCNRYEFLNGRVQSTELCAGHLAGGTDSCQGDSGGPLVCFEKDKYILQGVTSWGLGCARPNKPGVYVRVSRFVTWIEGVMRNN
chain 2: KVYLSECKTGNGKNYRGTMSKTKNGITCQKWSSTSPHRPRFSPATHPSEGLEENYCRNPDNDPQGPWCYTTDPEKRYDYCDILECEEECMHCSGENYDGKISKTMSGLECQAWDSQSPHAHGYIPSKFPNKNLKKNYCRNPDRELRPWCFTTDPNKRWELCDIPRCTTPPPSSGPTYQCLKGTGENYRGNVAVTVSGHTCQHWSAQTPHTHNRTPENFPCKNLDENYCRNPDGKRAPWCHTTNSQVRWEYCKIPSCDSSPVSTEQLAPTAPPELTPVVQDCYHGDGQSYRGTSSTTTTGKKCQSWSSMTPHRHQKTPENYPNAGLTMNYCRNPDADKGPWCFTTDPSVRWEYCNLKKCSGTEASVVAPPPVVLLPDVETPSEEDCMFGNGKGYRGKRATTVTGTPCQDWAAQEPHRHSIFTPETNPRAGLEKNYCRNPDGDVGGPWCYTTNPRKLYDYCDVPQCAAPSFDCGKPQVEPKKCPGR
notes: 0.4 CU/ml of human plasmin

Tests used:
[1] = biological target: T1, human thrombin (Homo sapiens, UniProt P00734); assay: Km and vmax from Lineweaver-Burk diagram, human thrombin; type: biochemical; conditions: ionic strength 0.15, pH 8.4, 37° C; for Km: tris-imidazole buffer, graphically from Lineweaver-Burk diagram; for vmax: value marked NIH
T1 construct: 0.56 NIH/ml of human thrombin
Method: (§1) As is evident from equation (2) constants Km and k3 determine the activity of the enzyme substrate for a given enzyme. For determining these constants the following procedure is followed:
(§2) The enzyme and the substrate are mixed in a buffer solution, and the reaction is followed spectrophotometrically for 2 to 30 minutes. The concentration of substrate [S] is varied, whereas the enzyme concentration [E] is kept constant. If the extinction (OD) (= optical density) is plotted in a co-ordinate system as a function of time, a curve is obtained the tangent of which (difference in extinction per minute, Δ OD/minute, from which the quantity in μmoles of pNA/min (v) can be calculated) at time zero corresponds to the ideal course of the hydrolysis. By means of this tangent the initial rate of the hydrolysis can be determined.
Km and vmax were determined for the enzymes by means of the LineweaverBurk equation (the Lineweaver-Burk diagram is shown in FIG. 7 of the drawings attached to the specification). […] According to the same principle Km and vmax were determined for the other enzymes. All determinations were carried out in trisimidazole buffer at an ionic strength of 0.15 and a pH of 8.4 at 37° C.

[2] = biological target: T2, bovine trypsin (Bos taurus, UniProt P00760); assay: Km and vmax from Lineweaver-Burk diagram, bovine trypsin; type: biochemical; conditions: value marked NF, ionic strength 0.15, pH 8.4, 37° C
T2 construct: 1.8 NF/ml of bovine trypsin
T2 sequence (P00760 24-246): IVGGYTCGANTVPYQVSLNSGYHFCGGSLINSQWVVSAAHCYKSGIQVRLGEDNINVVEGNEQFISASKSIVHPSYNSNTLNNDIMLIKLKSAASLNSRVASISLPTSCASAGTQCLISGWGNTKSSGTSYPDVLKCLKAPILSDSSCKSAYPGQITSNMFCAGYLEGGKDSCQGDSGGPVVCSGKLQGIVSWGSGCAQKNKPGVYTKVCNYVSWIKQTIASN
Method: as §1, §2
(§3) If 1/v is plotted against 1/[S], a Lineweaver-Burk diagram (cf. "Kurzes Lehrbuch der Biochemie" by P. KARSON, Georg Thieme-Verlag, Stuttgart, 1967., p. 70) is obtained from which vmax and Km can be determined graphically. [formula] were determined with N^α-Cbo-Gly-Pro-Arg-pNA.HCl (substrate according to Example 1) for human thrombin, human plasmin and bovine trypsin. Km and vmax were determined for the enzymes by means of the LineweaverBurk equation (the Lineweaver-Burk diagram is shown in FIG. 7 of the drawings attached to the specification). […]

[3] = biological target: T3, human ecarin-thrombin (Homo sapiens, UniProt P00734); assay: Enzymatic release of p-nitroaniline from substrate by human ecarin-thrombin; type: biochemical; conditions: substrate concentration 10^-4 M; pH 8.4, ionic strength 0.15, 37° C
T3 construct: 0.28 NIH/ml of human ecarin-thrombin

[4] = Solubility in water; type: physicochemical; conditions: for solubility: water
[5] = biological target: T4, human plasmin (Homo sapiens, UniProt P00747); assay: Km and vmax from Lineweaver-Burk diagram, human plasmin; type: biochemical; conditions: value marked CU, ionic strength 0.15, pH 8.4, 37° C
T4 construct: 0.4 CU/ml of human plasmin
Method: as §1, §2, §3

[6] = biological target: T1, human thrombin; assay: Enzymatic release of split product NH2-R2 from chromogenic/fluorogenic substrate by human thrombin; type: biochemical; conditions: in words, from Table 1
Method: The degree of the enzymatic hydrolysis of the substrate, which is proportional to the quantity of p-Nitroaniline formed, can be easily determined by spectrophotometric measurement at 405 nm. […] The conditions are practically the same for the other substrates carrying a p-nitroanilino group as a chromogenic group. The spectrophotometric measurement was therefore, carried out in all cases at 405 nm.
The mixture was pre-incubated for 2 minutes at 37° C. […] The increase in the absorption was measured spectrophotometrically at 405 nm and continuously followed by means of a recording device. The measuring results listed in Tables 1 and 2 were all obtained under the test conditions defined above. The quantity of the formed split product NH2 --R^2 is a measure for the susceptibility of the substrate to the enzymes. […] For determining the quantity (nanomole) of p-napthylamine and 4-methoxy-β-naphthylamine (substrates XII to XV, XVIII and XIX), respectively, formed per minute the samples were irradiated in a fluorescence photometer with light having a wave length of 350 nm. The quantity of the formed split product was determined by measuring the intensity of the light emitted at 420 nm.

[7] = biological target: human thrombin coagulase (Homo sapiens, UniProt P00734); assay: Enzymatic release of p-nitroaniline from substrate by human thrombin coagulase (staphylo-thrombin); type: biochemical; conditions: substrate concentration 10^-4 M; pH 8.4, ionic strength 0.15, 37° C
[8] = biological target: batroxobin (thrombin-like enzyme from venom of Bothrops moojeni) (Bothrops atrox, UniProt P04971); type: biochemical; conditions: pH 8.4
[9] = substrate: N=C(N)NCCC[C@H](NC(=O)[C@@H]1CCCN1C(=O)CNC(=O)OCc1ccccc1)C(=O)Nc1ccc([N+](=O)[O-])cc1; assay: Km and vmax from Lineweaver-Burk diagram, human plasmin; type: biochemical; conditions: other: human plasmin, tris-imidazole buffer, ionic strength 0.15, pH 8.4, 37° C
Method: as §1, §2, §3

[10] = substrate: Cc1ccc(S(=O)(=O)NCC(=O)N2CCC[C@H]2C(=O)N[C@@H](CCCNC(=N)N)C(=O)Nc2ccc([N+](=O)[O-])cc2)cc1; assay: as above; type: biochemical; conditions: other: human plasmin, tris-imidazole buffer, ionic strength 0.15, pH 8.4, 37° C
Method: as §1, §2, §3

Sequence of batroxobin (thrombin-like enzyme from venom of Bothrops moojeni) (P04971 25-255 limits assumed): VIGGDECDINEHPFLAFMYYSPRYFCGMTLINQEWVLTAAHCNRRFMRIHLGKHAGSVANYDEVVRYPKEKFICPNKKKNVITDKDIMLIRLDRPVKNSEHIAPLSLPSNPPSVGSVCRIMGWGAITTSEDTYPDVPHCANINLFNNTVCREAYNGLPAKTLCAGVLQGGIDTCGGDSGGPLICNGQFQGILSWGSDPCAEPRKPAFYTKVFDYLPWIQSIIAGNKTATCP

Molecule	Km [1]	vmax [1]	vmax [2]	Quantity of p-nitroaniline enzymatically split off from the substrate in 1 minute by the quantity of human ecarin-thrombin corresponding to 1 NIH [3]	solubility [4]	vmax [5]	susceptibility to human thrombin compared with N^α -Bz-Phe-Val-Arg-pNA.HCl [6]	Quantity of p-nitroaniline enzymatically split off from the substrate in 1 minute by the quantity of human thrombin coagulase corresponding to 1 NIH [7]	Quantity of p-nitroaniline enzymatically split off from the substrate in 1 minute by the quantity of batroxobin corresponding to 1 NIH [8]	further results
N=C(N)NCCC[C@H](NC(=O)[C@@H]1CCCN1C(=O)CNC(=O)OCc1ccccc1)C(=O)Nc1ccc([N+](=O)[O-])cc1 [Substrate I, N^α -Cbo-Gly-Pro-Arg-pNA.HCl] (Cbz-Gly-Pro-Arg-pNA)	57.1 µM	0.0534 µmol/L	0.0427 µmol/L	246.4 nmol	> 4000 µg/mL	0.673 µmol/L	much higher	575 nmol	15.81 nmol	solubility in water relative to Bz-Phe-Val-Arg-pNA.HCl ([4]; ratio to prior art thrombin substrate): 4 times
CC(C)COC(=O)NCC(=O)N1CCC[C@H]1C(=O)N[C@@H](CCCNC(=N)N)C(=O)Nc1ccc([N+](=O)[O-])cc1 [Substrate XI, n^α -isobutyloxycarbonyl-Gly-Pro-Arg-p-Na.HCl]							much higher			
CC(C)[C@H](NC(=O)[C@H](Cc1ccccc1)NC(=O)c1ccccc1)C(=O)N[C@@H](CCCNC(=N)N)C(=O)Nc1ccc([N+](=O)[O-])cc1 [N^α -Bz-Phe-Val-Arg-pNA . HCl, N^α -Bz-Phe-Val-Arg-pNA.HCl, reference compound] (Bz-Phe-Val-Arg-pNA)				30.7 nmol	~1000 µg/mL			102 nmol	3.26 nmol	
N=C(N)NCCC[C@H](NC(=O)[C@@H]1CCCN1C(=O)CNS(=O)(=O)c1ccccc1)C(=O)Nc1ccc([N+](=O)[O-])cc1 [Substrate VIII, n^α -benzenesulfonyl-Gly-Pro-Arg-pNA.NCl]							much higher			
Cc1ccc(S(=O)(=O)NCC(=O)N2CCC[C@H]2C(=O)N[C@@H](CCCNC(=N)N)C(=O)Nc2ccc([N+](=O)[O-])cc2)cc1 [Substrate VII, n^α -tos-Gly-Pro-Arg-pNA.HCl] (Tos-Gly-Pro-Arg-pNA)	17 µM	0.0757 µmol/L	0.0297 µmol/L			0.618 µmol/L	much higher			
B1										Km [9]: 357 µM; Km [10]: 323 µM
